Molecular target: T1, CFTR (Homo sapiens, UniProt P13569)
T1 construct: Immunoprecipitations of endogenous proteins were performed on 500 μg of lysates from Caco-2 cells; host or cells: Caco-2, T84
Experiment: CFTR channel function in intestinal epithelial cells (forskolin-induced Isc in Ussing chambers; SPQ iodide efflux)
Type: cell-based
Experimental: Human colon adenocarcinoma-derived Caco-2 and T84 cells (Barone, M. V. et al. 2014; Luciani, A. et al. 2010) were obtained from the ATCC. Cells were maintained in T25 flask in Modified Eagle Medium (MEM) for Caco-2, or Ham's F12+DMEM (1:1) for T84, supplemented with 10% fetal bovine serum (FBS), 2 mM Glutamine+1% Non Essential Amino Acids (NEAA) and the antibiotics penicillin\streptomycin (100 units/ml) (all reagents from Lonza). Caco-2 cells were grown in Transwells (Corning, 3470 or 3460) under the normal condition. Briefly, 8×10^4 or 5×10^5 cells were seeded in 6.5-mm diameter or 12-mm diameter, respectively, and grown until the RT reached 800 to 1,200 Ω·cm^2. Transwells with a pore size of 0.4 μm were used. Medium in both the apical and baso lateral chambers was changed every other day. Cells were treated with 20 μg/ml of either with the α-gliadin peptide comprising the P31-43 amino acid sequence of α-gliadin LGQQQPFPPQQPY (SEQ ID 1) (below referred to as P31-43), which is known to induce an enterocyte stress response (Meresse, B. et al.2009; Barone, M. V. et al. 2014; Luciani, A. et al. 2010), the T-cell activating α-gliadin peptide comprising the P57-68 amino acid sequence of α-gliadin (QLQPFPQPQLPY SEQ ID 2)) (below referred to as P57-68) (Maiuri, L., et al. 2003; Meresse, B. et al.2009; 30 Barone, M. V. et al. 2014), or the scrambled GAVAAVGVVAGA (SEQ ID 3) control peptide (below referred to as PGAV), or with different modified P31-43, either biotin-tagged or not, for different time points (from 1 h short challenge up to 24 h). Cells were also treated with 50 or 100 5 μg/ml of P57-68 or PGAV peptides for 3 h.
Caco-2 or T84 cells were also treated with: CFTR potentiators VX-770 (Ivacaftor) (10 μM) or VX-532 (20 μM) (Selleck chemicals) or Genistein (10 μM) (Verkman, A. S. et al. 2005; Jih, K. Y. et al. 2013) (Sigma-Aldrich) or in presence or absence of CFTR inhibitor172 (CFTRinh172, 20 μM).
Human colon adenocarcinoma-derived Caco-2 and T84 cells were obtained from the ATCC. Cells were maintained in T25 flask in Modified Eagle Medium (MEM) for Caco-2, or Ham's F12+DMEM (1:1) for T84, supplemented with 10% fetal bovine serum (FBS), 2 mM Glutamine+1% Non Essential Amino Acids (NEAA) and the antibiotics penicillin\streptomycin (100 units/ml) (all reagents from Lonza) (Luciani, A., et al. 2010. Cells were grown in Transwells (Corning, 3470 or 3460) under the normal condition (Luciani, A., et al. 2012). Briefly, 8×10^4 or 5×10^5 cells were seeded in 6.5-mm diameter or 12-mm diameter, respectively, and grown until the RT reached 800 to 1,200 Ω·cm2. Transwells with a pore size of 0.4 μm were used. Medium in both the apical and basolateral chambers was changed every other day. […]

T1 sequence (P13569 whole entry): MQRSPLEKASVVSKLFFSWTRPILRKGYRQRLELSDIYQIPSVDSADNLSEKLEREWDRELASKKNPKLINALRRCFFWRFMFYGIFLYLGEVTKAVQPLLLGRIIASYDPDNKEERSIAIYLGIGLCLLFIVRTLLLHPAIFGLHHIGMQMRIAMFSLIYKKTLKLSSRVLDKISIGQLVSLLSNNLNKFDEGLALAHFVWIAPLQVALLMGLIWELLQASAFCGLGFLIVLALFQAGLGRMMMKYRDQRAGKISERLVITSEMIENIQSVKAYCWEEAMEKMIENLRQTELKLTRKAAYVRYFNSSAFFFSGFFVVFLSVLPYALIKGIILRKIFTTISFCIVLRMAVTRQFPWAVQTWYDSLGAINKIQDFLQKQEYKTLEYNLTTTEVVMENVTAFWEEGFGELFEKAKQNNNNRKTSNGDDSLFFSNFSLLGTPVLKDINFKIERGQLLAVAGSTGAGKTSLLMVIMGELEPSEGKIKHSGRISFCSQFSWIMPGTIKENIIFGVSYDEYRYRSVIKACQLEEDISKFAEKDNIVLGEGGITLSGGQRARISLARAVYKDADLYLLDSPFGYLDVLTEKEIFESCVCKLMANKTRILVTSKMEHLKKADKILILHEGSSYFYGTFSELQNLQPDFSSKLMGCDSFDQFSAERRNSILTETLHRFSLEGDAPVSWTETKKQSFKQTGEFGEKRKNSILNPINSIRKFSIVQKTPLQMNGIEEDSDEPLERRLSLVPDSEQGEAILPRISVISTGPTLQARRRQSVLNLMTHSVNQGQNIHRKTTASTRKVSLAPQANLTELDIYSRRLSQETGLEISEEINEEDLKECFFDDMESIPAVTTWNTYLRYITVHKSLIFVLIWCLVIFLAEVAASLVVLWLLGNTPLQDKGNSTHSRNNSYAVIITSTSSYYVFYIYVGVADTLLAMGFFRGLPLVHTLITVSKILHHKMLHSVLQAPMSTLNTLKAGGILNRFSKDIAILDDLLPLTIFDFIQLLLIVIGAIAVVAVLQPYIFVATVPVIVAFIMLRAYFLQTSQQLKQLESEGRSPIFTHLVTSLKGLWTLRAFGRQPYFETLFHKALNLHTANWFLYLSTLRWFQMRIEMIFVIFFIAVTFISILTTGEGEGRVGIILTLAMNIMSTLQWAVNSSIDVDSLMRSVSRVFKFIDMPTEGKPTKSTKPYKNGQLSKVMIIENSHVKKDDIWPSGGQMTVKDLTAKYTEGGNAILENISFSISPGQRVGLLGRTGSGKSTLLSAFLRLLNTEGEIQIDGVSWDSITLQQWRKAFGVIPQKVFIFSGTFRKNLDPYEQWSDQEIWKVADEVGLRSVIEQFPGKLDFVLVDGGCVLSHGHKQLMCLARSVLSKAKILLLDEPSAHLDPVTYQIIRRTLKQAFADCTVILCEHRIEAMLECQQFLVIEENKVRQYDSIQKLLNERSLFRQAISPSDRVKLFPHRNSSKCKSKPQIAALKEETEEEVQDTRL

CC(C)(C)c1cc(C(C)(C)C)c(NC(=O)c2c[nH]c3ccccc3c2=O)cc1O [VX-770, N-(2,4-di-tert-butyl-5-hydroxyphenyl)-4-oxo-1,4-dihydroquinoline-3-carboxamide]
prevention of P31-43 induced decrease of CFTR function (VX-770 10 μM, VX-532 20 μM, Genistein 10 μM, Caco-2 or T84 cells): Prevents P31-43 Induced Inhibition of CFTR Function

α-gliadin peptide LGQQQPFPPQQPY (SEQ ID 1), induces an enterocyte stress response (P31-43 sequence of alpha-gliadin)
reduction of CFTR channel function in response to forskolin (20 μg/ml peptide, intestinal epithelial cells (Caco-2, T84)): did reduce CFTR channel function

Reference: patent publication US20200206198A1, “CFTR CHANNEL ACTIVATOR FOR USE IN THE TREATMENT AND/OR PREVENTION OF GLUTEN SENSITIVITY CONDITIONS” (priority 2017, published 2020)
